The subject of experiment [1] is Schistosoma mansoni cercariae. In words: Activity against Schistosoma mansoni cercariae (survival/mobility observed with a stereomagnifier). Further details: key: no effect during the entire test period of 120 minutes; 1: weak effect (the cercariae have a strongly reduced mobility); 2: good effect (the cercariae are only slightly mobile and bent); 3: full effect (the cercariae are completely immobile). The settings on record: 500 μl/l final concentration of active compound; PEG300/aquarium water; test period of 120 minutes; about 100 to 150 cercariae per batch. Here is the method:
[500 μl/l final concentration of the active compounds] Snails (Biomphalaria glabrata) were infected by incubating each of them with 8 miracidia in 10 ml of water overnight. About 6 to 9 weeks after the infection, cercariae were obtained by irradiating the snails, which had been kept in darkness, with light, followed by collection of the swarming cercariae within 2 hours.
Such an amount of cercariae-containing water (1 or 2 ml, see below) was added to the test batches that each batch contained about 100 to 150 cercariae.
5 μl of active compound were mixed thoroughly with 25 μl of PEG300. 9 ml of aquarium water was then added, and the batch was shaken vigorously. After (delayed) addition of 1 ml of cercariae suspension, survival of the cercariae was in each case observed immediately using a stereomagnifier.

Experiment [2] deals with cercariae of Schistosoma mansoni. The settings on record: topical; Salafsky et al. 1998; cited from earlier work.
For experiment [3] the test system is unchanged. The settings on record: topical, monkeys; Bruce et al. 1992; cited from earlier work.
Experiment [4] shares this test system. The settings on record: Fripp and Armstrong 1973; cited from earlier work.

Consider `CCC(C)N(C)C(=O)N1CC(C)OC(C)C1` (stereo not shown), for which the “activity rating against Schistosoma mansoni cercariae” value in experiment [1] is 1.
As for `CCN(CC)C(=O)c1cccc(C)c1` [N,N-Diethyl-m-toluamide (DEET), N,N-Diethyl-m-toluamide], the “action against cercariae of Schistosoma mansoni” value in experiment [2] is recorded as “acts against cercariae”.
Consider `O=C(Nc1ccc([N+](=O)[O-])cc1Cl)c1cc(Cl)ccc1O` [Niclosamide], for which the “action against the penetration of cercariae” value in experiment [3] is “acts against the penetration of cercariae”.
For `Oc1c(Cl)cc(Cl)c(Cl)c1Cc1c(O)c(Cl)cc(Cl)c1Cl` [hexachlorophene], the “effect on cercariae of Schistosoma mansoni” value in experiment [4] is reported as “lethal effect”.

Values taken from US20030186980A1, “Anthelmintic agents for preventing parasitic infections in humans and animals III” (priority 2000, published 2003).
